In patent publication US9968573B2, “Endoprosthesis having and active substance coating” (HEMOTEQ AG, priority 2011, dated 2018):
Like-named read-outs stand apart in the source and are kept apart here.

What was measured:
L929 cell line = assay: In vitro cytotoxicity, growth inhibition of L929 cell line; assay type: cell-based; settings: 68-72 h
Experimental: The cytotoxic effect was tested on the growth inhibition of L929 cell line after incubation period of 68-72 h for 6 different concentrations according to relevant, valid DIN and ISO standards. DMEM 10% FCS was used as a negative control and the positive control was 5% DMSO in DMEM 10% FCS

[1] = tested on: Staphylococcus aureus (ATCC 6538); settings: Ti-Cylinder, rough surface
Experimental: Then, the minimum inhibitory concentration (MIC) for Staphylococcus aureus (ATCC 6538) is determined over a serial dilution series according to DIN 58940 (Part 7).

L929 cells = settings: Ti-Cylinder, rough surface, 24 h extract, L929 68 h
Experimental: This allows a conclusion on the proliferation of the cells during incubation.

[2] = tested on: partially resistant Staphylococcus aureus strains; settings: conversion of literature MIC to gentamicin pantothenate per cm^2
Experimental: For this purpose, coarse-blasted titanium cylinders were coated by pipetting with different amounts of ethanolic gentamicin-5-pantothenate solution and after drying the coating mass was determined by weighing. The coated titanium tubes were then γ-sterilized.
Approximate values for the upper limit and lower limit of the amount of coating on the test specimens were derived using data already known to cytotoxicity of gentamicin as a pure substance. […] The upper limit of the samples was determined on the basis of model calculations in combination with experimentally specifically determined data of cytotoxicity of gentamicin sulfate.

[3] = tested on: partially resistant Staphylococcus aureus strains; settings: gentamicin as a pure substance (Alt et al., 2004); cited from earlier work

In the case of gentamicin sulfate, the “GI (growth inhibition of the cell line L929)” value (L929 cell line; c 0.3 mg/mL, n = 3) is reported as 4%, the “GI (growth inhibition of the cell line L929)” value (L929 cell line; c 0.6 mg/mL, n = 3) is reported as 8% and the “GI (growth inhibition of the cell line L929)” value (L929 cell line; c 1.2 mg/mL, n = 3) is reported as 12%. The “GI (growth inhibition of the cell line L929)” value (L929 cell line; c 1.8 mg/mL, n = 3) was 12%, the “GI (growth inhibition of the cell line L929)” value (L929 cell line; c 2.4 mg/mL, n = 3) was 22% and the “GI (growth inhibition of the cell line L929)” value (L929 cell line; c 3.0 mg/mL, n = 3) was 29%.
With Gentamicin-Penta-Pantothenate the “calculated MIC” value ([1]; 20 μg/cm^2) was 50 µg/mL, the “calculated MIC” value ([1]; 50 μg/cm^2) was 62.5 µg/mL and the “calculated MIC” value ([1]; 100 μg/cm^2) was 31.25 µg/mL. The “Growth Inhibition” value (L929 cells; 700 μg/cm^2) was 23%, the “Growth Inhibition” value (L929 cells; 800 μg/cm^2) was 18% and the “Growth Inhibition” value (L929 cells; 900 μg/cm^2) was 20%. The “mathematically required minimum dose (lower limit)” value [2] was 28 μg/cm^2.
In the case of calcium pantothenate [Ca pantothenate], the “GI (growth inhibition of the cell line L929)” value (L929 cell line; c 0.3 mg/mL, n = 3) is reported as 0%, the “GI (growth inhibition of the cell line L929)” value (L929 cell line; c 0.6 mg/mL, n = 3) is reported as 0% and the “GI (growth inhibition of the cell line L929)” value (L929 cell line; c 1.2 mg/mL, n = 3) is reported as 4%. For the same compound, the “GI (growth inhibition of the cell line L929)” value (L929 cell line; c 1.8 mg/mL, n = 3) was 7%, the “GI (growth inhibition of the cell line L929)” value (L929 cell line; c 2.4 mg/mL, n = 3) was 1% and the “GI (growth inhibition of the cell line L929)” value (L929 cell line; c 3.0 mg/mL, n = 3) was 2%.
With O=C(O)c1ccccc1 [benzoic acid] the “GI (growth inhibition of the cell line L929)” value (L929 cell line; c 0.3 mg/mL, n = 3) was 10%, the “GI (growth inhibition of the cell line L929)” value (L929 cell line; c 0.6 mg/mL, n = 3) was 20% and the “GI (growth inhibition of the cell line L929)” value (L929 cell line; c 0.9 mg/mL, n = 3) was 35%. The “GI (growth inhibition of the cell line L929)” value (L929 cell line; c 1.5 mg/mL, n = 3) was 50%, the “GI (growth inhibition of the cell line L929)” value (L929 cell line; c 2.1 mg/mL, n = 3) was 64% and the “GI (growth inhibition of the cell line L929)” value (L929 cell line; c 3.0 mg/mL, n = 3) was 77%.
For O=C(O)c1ccccc1O [salicylic acid], the “GI (growth inhibition of the cell line L929)” value (L929 cell line; c 0.1 mg/mL, n = 3) was 16%, the “GI (growth inhibition of the cell line L929)” value (L929 cell line; c 0.3 mg/mL, n = 3) was 19% and the “GI (growth inhibition of the cell line L929)” value (L929 cell line; c 0.5 mg/mL, n = 3) was 42%. The “GI (growth inhibition of the cell line L929)” value (L929 cell line; c 0.8 mg/mL, n = 3) was 54%, the “GI (growth inhibition of the cell line L929)” value (L929 cell line; c 1.1 mg/mL, n = 3) was 67% and the “GI (growth inhibition of the cell line L929)” value (L929 cell line; c 1.3 mg/mL, n = 3) was 74%.
In the case of gentamicin, the minimum inhibitory concentration [3] is given as 64 µg/mL.
In the case of CCCCCCCCCCCCCCCC(=O)O [palmitic acid], the “GI (growth inhibition of the cell line L929)” value (L929 cell line; c 0.005 mg/mL, n = 3, solvent 0.5% ethanol) is reported as 2%, the “GI (growth inhibition of the cell line L929)” value (L929 cell line; c 0.01 mg/mL, n = 3, solvent 0.5% ethanol) is reported as 5% and the “GI (growth inhibition of the cell line L929)” value (L929 cell line; c 0.02 mg/mL, n = 3, solvent 0.5% ethanol) is reported as 8%. For the same compound, the “GI (growth inhibition of the cell line L929)” value (L929 cell line; c 0.03 mg/mL, n = 3, solvent 0.5% ethanol) was 17%, the “GI (growth inhibition of the cell line L929)” value (L929 cell line; c 0.04 mg/mL, n = 3, solvent 0.5% ethanol) was 22% and the “GI (growth inhibition of the cell line L929)” value (L929 cell line; c 0.05 mg/mL, n = 3, solvent 0.5% ethanol) was 30%.
